Experimental data taken from patent US20130190403A1, “ADMINISTRATION OF INTRAVENOUS IBUPROFEN TO TRAUMA PATIENTS” (Cumberland Pharmaceuticals Inc., priority 2012, published 2013).

Test system: traumatic rib fracture patients
Experiment: Retrospective review of traumatic rib fracture patients: intravenous ibuprofen plus narcotics versus narcotics alone
Assay type: in vivo, human

complications associated with ibuprofen therapy (Treatment group): no significant complications
Structure (SMILES): CC(C)Cc1ccc(C(C)C(=O)O)cc1 (stereo not drawn) [ibuprofen, 2-(4-isobutylphenyl) propionic acid]
daily narcotic requirement, Treatment Group versus Control Group (Day 1 or Day 2): did not differ | daily narcotic requirement, Treatment Group versus Control Group (each of Days 3 through 7 (p<0.05)): significantly decreased
